Test results published in paper PMC7497403, “Development of Potent PfCLK3 Inhibitors Based on TCMDC-135051 as a New Class of Antimalarials” (Journal of Medicinal Chemistry, 2020).
≈ marks a conversion by molar mass, not a printed value.

What was measured:
Microsomal stability = assay type: in vitro ADME; settings: mouse liver microsomes; 1 μM compound
Protocol: Compounds were incubated at 37 °C at a concentration of 1 μM with CD1 mouse liver microsomes (GIBCO, Thermo Fisher Scientific) in a suspension of 50 mM potassium phosphate buffer (pH 7.4) with a final protein concentration of 0.5 mg/mL. The reaction was started by the addition of excess NADPH and then quenched at several time points starting from time 0, then at 3, 6, 9, 15, and 30 min addition of acetonitrile to an aliquot of the sample. An internal standard was added to each sample before centrifugation to remove any precipitates before monitoring loss of parent compound by HPLC analysis using Shimadzu LC-20A (Shimadzu, UK). Prism (Graphpad, USA) was used to fit an exponential decay for substrate depletion and subsequently rate constant (k) from the peak area of the parent compound to the internal standard at each time point.

Aqueous solubility = assay type: physicochemical; settings: aqueous medium (not further specified); read-out: Aq. Solubility
[1] = tested on: P. falciparum clinical field isolates from The Gambia; experiment: Parasite reduction rate (PRR) assay with clinical isolates; assay type: cell-based
AMPK (hum) = AMPK (hum) (Homo sapiens, UniProt Q13131); experiment: Kinase screen; assay type: biochemical
From the text: (§1) With verapamil used as a positive control.
(§2) V. Distribution coefficient (LogD7.4)

CHK2 = CHK2 (Homo sapiens, UniProt O96017); experiment: Kinase screen; assay type: biochemical
From the text: as §1, §2

CK1γ2 = CK1γ2 (Homo sapiens, UniProt P78368); experiment: Kinase screen; assay type: biochemical
Sequence of CK1γ2 (P78368 whole entry): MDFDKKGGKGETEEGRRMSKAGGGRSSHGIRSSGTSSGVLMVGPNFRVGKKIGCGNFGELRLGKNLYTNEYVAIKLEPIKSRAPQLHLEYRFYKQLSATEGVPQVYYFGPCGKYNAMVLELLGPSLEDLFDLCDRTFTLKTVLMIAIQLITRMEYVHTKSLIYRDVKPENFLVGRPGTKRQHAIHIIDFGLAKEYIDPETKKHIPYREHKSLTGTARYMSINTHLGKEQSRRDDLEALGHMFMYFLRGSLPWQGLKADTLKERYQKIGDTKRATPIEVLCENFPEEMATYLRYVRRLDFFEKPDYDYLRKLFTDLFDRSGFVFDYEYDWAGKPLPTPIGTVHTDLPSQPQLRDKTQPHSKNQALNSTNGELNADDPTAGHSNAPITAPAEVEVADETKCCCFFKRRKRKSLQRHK
From the text: as §1, §2

CSK = CSK (Homo sapiens, UniProt P41240); experiment: Kinase screen; assay type: biochemical
Sequence of CSK (P41240 whole entry): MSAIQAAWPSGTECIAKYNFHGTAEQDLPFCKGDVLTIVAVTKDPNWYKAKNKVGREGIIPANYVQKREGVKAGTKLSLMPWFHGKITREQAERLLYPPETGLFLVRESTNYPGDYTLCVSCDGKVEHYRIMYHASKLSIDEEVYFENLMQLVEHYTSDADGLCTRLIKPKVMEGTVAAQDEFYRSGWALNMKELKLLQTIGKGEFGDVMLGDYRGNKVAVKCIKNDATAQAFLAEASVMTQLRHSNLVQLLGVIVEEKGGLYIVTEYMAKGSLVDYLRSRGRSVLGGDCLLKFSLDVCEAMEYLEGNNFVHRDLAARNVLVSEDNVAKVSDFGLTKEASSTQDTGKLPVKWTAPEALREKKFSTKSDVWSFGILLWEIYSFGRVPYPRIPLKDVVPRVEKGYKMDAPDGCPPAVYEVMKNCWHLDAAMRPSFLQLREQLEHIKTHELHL
From the text: as §1, §2

DAPK1 = DAPK1 (Homo sapiens, UniProt P53355); experiment: Kinase screen; assay type: biochemical
Sequence of DAPK1 (P53355 whole entry): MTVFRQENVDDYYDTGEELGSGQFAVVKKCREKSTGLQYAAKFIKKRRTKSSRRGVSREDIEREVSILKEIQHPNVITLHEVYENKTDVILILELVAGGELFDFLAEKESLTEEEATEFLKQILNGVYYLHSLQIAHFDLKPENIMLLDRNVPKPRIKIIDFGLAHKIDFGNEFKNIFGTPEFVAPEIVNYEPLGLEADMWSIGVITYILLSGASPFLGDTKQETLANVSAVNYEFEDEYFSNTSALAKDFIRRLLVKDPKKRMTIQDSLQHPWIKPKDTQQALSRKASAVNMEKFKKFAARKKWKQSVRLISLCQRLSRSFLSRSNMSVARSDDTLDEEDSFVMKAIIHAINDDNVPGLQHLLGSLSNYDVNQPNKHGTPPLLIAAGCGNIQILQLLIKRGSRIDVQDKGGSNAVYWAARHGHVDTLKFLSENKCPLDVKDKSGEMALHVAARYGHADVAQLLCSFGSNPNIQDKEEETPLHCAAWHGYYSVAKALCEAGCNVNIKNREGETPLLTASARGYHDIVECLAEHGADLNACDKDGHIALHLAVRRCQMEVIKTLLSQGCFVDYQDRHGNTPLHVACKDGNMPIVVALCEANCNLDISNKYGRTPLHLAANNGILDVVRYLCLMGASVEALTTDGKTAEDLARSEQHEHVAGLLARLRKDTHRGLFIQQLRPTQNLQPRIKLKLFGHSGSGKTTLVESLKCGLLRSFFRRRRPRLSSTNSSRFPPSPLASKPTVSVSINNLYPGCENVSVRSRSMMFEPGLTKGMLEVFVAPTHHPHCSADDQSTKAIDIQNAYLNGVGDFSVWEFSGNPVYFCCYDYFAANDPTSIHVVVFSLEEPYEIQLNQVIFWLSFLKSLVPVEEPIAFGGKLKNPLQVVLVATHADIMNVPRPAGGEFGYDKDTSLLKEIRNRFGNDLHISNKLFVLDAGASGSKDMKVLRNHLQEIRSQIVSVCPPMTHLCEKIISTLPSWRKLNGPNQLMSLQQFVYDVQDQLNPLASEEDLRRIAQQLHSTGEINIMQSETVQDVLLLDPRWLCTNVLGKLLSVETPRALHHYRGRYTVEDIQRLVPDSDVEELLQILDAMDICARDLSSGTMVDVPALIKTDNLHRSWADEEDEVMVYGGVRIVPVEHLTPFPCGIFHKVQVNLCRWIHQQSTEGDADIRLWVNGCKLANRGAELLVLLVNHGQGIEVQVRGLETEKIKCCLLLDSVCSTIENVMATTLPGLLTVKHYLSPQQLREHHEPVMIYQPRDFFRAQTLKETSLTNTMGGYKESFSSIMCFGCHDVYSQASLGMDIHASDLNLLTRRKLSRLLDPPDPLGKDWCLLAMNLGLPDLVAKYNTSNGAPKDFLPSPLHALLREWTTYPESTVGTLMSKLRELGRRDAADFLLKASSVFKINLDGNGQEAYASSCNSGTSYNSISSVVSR
From the text: as §1, §2

EIF2AK3 = EIF2AK3 (Homo sapiens, UniProt Q9NZJ5); experiment: Kinase screen; assay type: biochemical
From the text: as §1, §2

EPH-B3 = EPH-B3 (Homo sapiens, UniProt P54753); experiment: Kinase screen; assay type: biochemical
From the text: as §1, §2

ERK2 = ERK2 (Homo sapiens, UniProt P28482); experiment: Kinase screen; assay type: biochemical
From the text: as §1, §2

HIPK1 = HIPK1 (Homo sapiens, UniProt Q86Z02); experiment: Kinase screen; assay type: biochemical
From the text: as §1, §2

IRR = IRR (Homo sapiens, UniProt P14616); experiment: Kinase screen; assay type: biochemical
From the text: as §1, §2

JNK1 = JNK1 (Homo sapiens, UniProt P45983); experiment: Kinase screen; assay type: biochemical
From the text: as §1, §2

JNK2 = JNK2 (Homo sapiens, UniProt P45984); experiment: Kinase screen; assay type: biochemical
From the text: as §1, §2

Lck = Lck (Homo sapiens, UniProt P06239); experiment: Kinase screen; assay type: biochemical
From the text: as §1, §2

MAP4K3 = MAP4K3 (Homo sapiens, UniProt Q8IVH8); experiment: Kinase screen; assay type: biochemical
Sequence of MAP4K3 (Q8IVH8 whole entry): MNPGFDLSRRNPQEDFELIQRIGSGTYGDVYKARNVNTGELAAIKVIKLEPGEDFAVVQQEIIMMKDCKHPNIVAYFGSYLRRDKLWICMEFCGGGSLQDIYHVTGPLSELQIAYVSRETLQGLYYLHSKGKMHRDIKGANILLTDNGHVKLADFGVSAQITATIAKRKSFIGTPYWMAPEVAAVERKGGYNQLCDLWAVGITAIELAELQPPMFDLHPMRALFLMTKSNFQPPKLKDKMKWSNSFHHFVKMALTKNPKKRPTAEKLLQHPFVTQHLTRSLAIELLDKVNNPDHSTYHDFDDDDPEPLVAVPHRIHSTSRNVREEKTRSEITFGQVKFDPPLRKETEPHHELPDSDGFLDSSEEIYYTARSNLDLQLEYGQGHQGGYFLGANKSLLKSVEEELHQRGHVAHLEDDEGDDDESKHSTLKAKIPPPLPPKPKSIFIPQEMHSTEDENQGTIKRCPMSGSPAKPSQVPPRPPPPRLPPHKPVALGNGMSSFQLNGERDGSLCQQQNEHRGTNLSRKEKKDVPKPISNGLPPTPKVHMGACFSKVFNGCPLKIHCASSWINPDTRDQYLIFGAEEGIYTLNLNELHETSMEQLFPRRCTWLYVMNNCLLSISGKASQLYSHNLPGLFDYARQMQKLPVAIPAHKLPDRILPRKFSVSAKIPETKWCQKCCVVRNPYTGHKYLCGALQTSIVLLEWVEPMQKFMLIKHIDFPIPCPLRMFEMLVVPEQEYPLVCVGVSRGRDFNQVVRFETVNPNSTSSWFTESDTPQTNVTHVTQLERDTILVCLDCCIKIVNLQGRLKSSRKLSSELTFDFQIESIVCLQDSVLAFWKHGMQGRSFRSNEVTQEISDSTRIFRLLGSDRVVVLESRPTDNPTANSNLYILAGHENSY
From the text: as §1, §2

MARK1 = MARK1 (Homo sapiens, UniProt Q9P0L2); experiment: Kinase screen; assay type: biochemical
From the text: as §1, §2

MARK2 = MARK2 (Homo sapiens, UniProt Q7KZI7); experiment: Kinase screen; assay type: biochemical
From the text: as §1, §2

MELK = MELK (Homo sapiens, UniProt Q14680); experiment: Kinase screen; assay type: biochemical
From the text: as §1, §2

MST4 = MST4 (Homo sapiens, UniProt Q9P289); experiment: Kinase screen; assay type: biochemical
From the text: as §1, §2

PAK2 = PAK2 (Homo sapiens, UniProt Q13177); experiment: Kinase screen; assay type: biochemical
From the text: as §1, §2

PAK4 = PAK4 (Homo sapiens, UniProt O96013); experiment: Kinase screen; assay type: biochemical
From the text: as §1, §2

PDGFRA = PDGFRA (Homo sapiens, UniProt P16234); experiment: Kinase screen; assay type: biochemical
Sequence of PDGFRA (P16234 24-1089): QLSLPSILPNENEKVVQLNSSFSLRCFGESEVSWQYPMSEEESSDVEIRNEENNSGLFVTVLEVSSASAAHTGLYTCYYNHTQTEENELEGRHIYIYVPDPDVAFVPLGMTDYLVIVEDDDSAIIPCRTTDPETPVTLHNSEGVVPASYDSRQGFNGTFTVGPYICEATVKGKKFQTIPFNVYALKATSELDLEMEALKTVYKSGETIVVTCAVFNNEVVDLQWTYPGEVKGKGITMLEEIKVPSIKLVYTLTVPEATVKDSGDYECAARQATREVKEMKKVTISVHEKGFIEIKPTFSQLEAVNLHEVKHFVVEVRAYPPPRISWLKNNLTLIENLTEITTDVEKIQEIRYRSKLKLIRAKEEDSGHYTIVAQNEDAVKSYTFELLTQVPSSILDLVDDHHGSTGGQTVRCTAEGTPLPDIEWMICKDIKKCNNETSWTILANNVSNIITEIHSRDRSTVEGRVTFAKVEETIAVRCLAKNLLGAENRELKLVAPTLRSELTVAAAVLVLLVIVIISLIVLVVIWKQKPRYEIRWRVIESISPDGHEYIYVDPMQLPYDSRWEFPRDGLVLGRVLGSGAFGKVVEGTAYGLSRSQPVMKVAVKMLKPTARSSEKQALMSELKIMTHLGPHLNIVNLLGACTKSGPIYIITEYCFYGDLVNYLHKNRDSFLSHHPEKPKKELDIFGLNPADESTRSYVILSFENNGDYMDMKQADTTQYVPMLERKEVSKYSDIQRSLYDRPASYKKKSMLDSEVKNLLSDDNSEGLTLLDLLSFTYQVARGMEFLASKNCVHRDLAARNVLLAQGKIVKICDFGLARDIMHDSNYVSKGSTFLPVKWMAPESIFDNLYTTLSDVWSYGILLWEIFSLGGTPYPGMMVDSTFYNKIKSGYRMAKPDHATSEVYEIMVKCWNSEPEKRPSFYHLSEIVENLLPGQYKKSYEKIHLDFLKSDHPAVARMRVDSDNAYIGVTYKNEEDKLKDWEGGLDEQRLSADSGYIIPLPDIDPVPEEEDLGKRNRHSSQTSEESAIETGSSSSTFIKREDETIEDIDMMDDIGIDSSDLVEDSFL
From the text: as §1, §2

PDK1 = PDK1 (Homo sapiens, UniProt O15530); experiment: Kinase screen; assay type: biochemical
Sequence of PDK1 (O15530 whole entry): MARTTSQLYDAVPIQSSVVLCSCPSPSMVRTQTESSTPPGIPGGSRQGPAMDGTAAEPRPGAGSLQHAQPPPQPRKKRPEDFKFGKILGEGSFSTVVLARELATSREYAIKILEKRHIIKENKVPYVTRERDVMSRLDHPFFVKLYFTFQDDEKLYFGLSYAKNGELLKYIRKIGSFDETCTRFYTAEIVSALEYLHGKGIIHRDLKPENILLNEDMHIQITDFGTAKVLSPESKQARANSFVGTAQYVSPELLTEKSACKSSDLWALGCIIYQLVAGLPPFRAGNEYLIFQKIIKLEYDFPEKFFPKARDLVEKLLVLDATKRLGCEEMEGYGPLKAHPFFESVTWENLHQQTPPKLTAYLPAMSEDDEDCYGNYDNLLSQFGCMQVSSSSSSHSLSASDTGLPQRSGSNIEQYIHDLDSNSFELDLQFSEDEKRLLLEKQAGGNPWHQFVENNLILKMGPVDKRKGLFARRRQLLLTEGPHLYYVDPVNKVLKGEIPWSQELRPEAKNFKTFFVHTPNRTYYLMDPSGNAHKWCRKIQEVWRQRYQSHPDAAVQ
From the text: as §1, §2

PIM3 = PIM3 (Homo sapiens, UniProt Q86V86); experiment: Kinase screen; assay type: biochemical
From the text: as §1, §2

PKCa = PKCa (Homo sapiens, UniProt P17252); experiment: Kinase screen; assay type: biochemical
From the text: as §1, §2

PKCz = PKCz (Homo sapiens, UniProt Q05513); experiment: Kinase screen; assay type: biochemical
From the text: as §1, §2

RIPK2 = RIPK2 (Homo sapiens, UniProt O43353); experiment: Kinase screen; assay type: biochemical
From the text: as §1, §2

ROCK 2 = ROCK 2 (Homo sapiens, UniProt O75116); experiment: Kinase screen; assay type: biochemical
From the text: as §1, §2

RSK1 = RSK1 (Homo sapiens, UniProt Q15418); experiment: Kinase screen; assay type: biochemical
From the text: as §1, §2

S6K1 = S6K1 (Homo sapiens, UniProt P23443); experiment: Kinase screen; assay type: biochemical
From the text: as §1, §2

SGK1 = SGK1 (Homo sapiens, UniProt O00141); experiment: Kinase screen; assay type: biochemical
From the text: as §1, §2

SIK3 = SIK3 (Homo sapiens, UniProt Q9Y2K2); experiment: Kinase screen; assay type: biochemical
From the text: as §1, §2

TGFBR1 = TGFBR1 (Homo sapiens, UniProt P36897); experiment: Kinase screen; assay type: biochemical
From the text: as §1, §2

TIE2 = TIE2 (Homo sapiens, UniProt Q02763); experiment: Kinase screen; assay type: biochemical
From the text: as §1, §2

TTBK2 = TTBK2 (Homo sapiens, UniProt Q6IQ55); experiment: Kinase screen; assay type: biochemical
From the text: as §1, §2

TTK = TTK (Homo sapiens, UniProt P33981); experiment: Kinase screen; assay type: biochemical
From the text: as §1, §2

p38b MAPK = p38b MAPK (Homo sapiens, UniProt Q15759); experiment: Kinase screen; assay type: biochemical
From the text: as §1, §2

p38g MAPK = p38g MAPK (Homo sapiens, UniProt P53778); experiment: Kinase screen; assay type: biochemical
From the text: as §1, §2

CK1δ = CK1δ (Homo sapiens, UniProt P48730); experiment: Kinase screen; assay type: biochemical
PINK = settings: 1 μM

CCN(CC)Cc1ccc(OC)c(-c2cc3c(-c4ccc(C(=O)O)c(C(C)C)c4)ccnc3[nH]2)c1 [analogue 1, 4-(2-(5-((Diethylamino)methyl)-2-methoxyphenyl)-1H-pyrrolo[2,3-b]pyridin-4-yl)-2-isopropylbenzoic Acid]
clint (in vitro intrinsic clearance) (Microsomal stability): 1.12 mL/min/g liver | solubility (Aqueous solubility): 8 µg/mL (≈ 17 µM) | susceptibility of clinical isolates (PRR) [1]: total susceptibility | activity at 1 µM (AMPK (hum)): 30% | activity at 1 µM (CHK2): 77% | activity at 1 µM (CK1γ2): 93% | activity at 1 µM (CSK): 74% | activity at 1 µM (DAPK1): 105% | activity at 1 µM (EIF2AK3): 100% | activity at 1 µM (EPH-B3): 108% | activity at 1 µM (ERK2): 115% | activity at 1 µM (HIPK1): 83% | activity at 1 µM (IRR): 101% | activity at 1 µM (JNK1): 85% | activity at 1 µM (JNK2): 62% | activity at 1 µM (Lck): 39% | activity at 1 µM (MAP4K3): 1% | activity at 1 µM (MARK1): 52% | activity at 1 µM (MARK2): 34% | activity at 1 µM (MELK): 85% | activity at 1 µM (MST4): 59% | activity at 1 µM (PAK2): 84% | activity at 1 µM (PAK4): 105% | activity at 1 µM (PDGFRA): 133% | activity at 1 µM (PDK1): 111% | activity at 1 µM (PIM3): 80% | activity at 1 µM (PKCa): 64% | activity at 1 µM (PKCz): 121% | activity at 1 µM (RIPK2): 16% | activity at 1 µM (ROCK 2): 92% | activity at 1 µM (RSK1): 106% | activity at 1 µM (S6K1): 87% | activity at 1 µM (SGK1): 38% | activity at 1 µM (SIK3): 71% | activity at 1 µM (TGFBR1): 6% | activity at 1 µM (TIE2): 120% | activity at 1 µM (TTBK2): 114% | activity at 1 µM (TTK): 86% | activity at 1 µM (p38b MAPK): 112% | activity at 1 µM (p38g MAPK): 105% | activity at 1 µM (CK1δ): 91% | % Activity (PINK): 106%
